From patent US20240277658A1, “NLRP3 ACTIVATORS FOR USE IN THE TREATMENT OF INFECTIOUS DISEASES OR CANCER BY ACTIVATING NLRP3 INFLAMMASOME” (ALBERT-LUDWIGS-UNIVERSITÄT FREIBURG, priority 2020, published 2024)
“And” between values parts separate entries of the source, which are not always exact repeats. Equal entries are not always repeated. Structures can show the parent of a compound that is named as a salt. Where two headings read alike, the source gives them in different places.

Key:
[1] = target: T1, NLRP3 inflammasome (Mus musculus, UniProt Q8R4B8); assay: IL-1β release from LPS-primed BMDCs (ELISA) as readout of NLRP3 inflammasome activation; format: cell-based
T1 construct: endogenous in cells; host or cells: primary mouse bone marrow-derived dendritic cells (BMDCs), LPS-primed
T1 sequence (Q8R4B8 whole entry): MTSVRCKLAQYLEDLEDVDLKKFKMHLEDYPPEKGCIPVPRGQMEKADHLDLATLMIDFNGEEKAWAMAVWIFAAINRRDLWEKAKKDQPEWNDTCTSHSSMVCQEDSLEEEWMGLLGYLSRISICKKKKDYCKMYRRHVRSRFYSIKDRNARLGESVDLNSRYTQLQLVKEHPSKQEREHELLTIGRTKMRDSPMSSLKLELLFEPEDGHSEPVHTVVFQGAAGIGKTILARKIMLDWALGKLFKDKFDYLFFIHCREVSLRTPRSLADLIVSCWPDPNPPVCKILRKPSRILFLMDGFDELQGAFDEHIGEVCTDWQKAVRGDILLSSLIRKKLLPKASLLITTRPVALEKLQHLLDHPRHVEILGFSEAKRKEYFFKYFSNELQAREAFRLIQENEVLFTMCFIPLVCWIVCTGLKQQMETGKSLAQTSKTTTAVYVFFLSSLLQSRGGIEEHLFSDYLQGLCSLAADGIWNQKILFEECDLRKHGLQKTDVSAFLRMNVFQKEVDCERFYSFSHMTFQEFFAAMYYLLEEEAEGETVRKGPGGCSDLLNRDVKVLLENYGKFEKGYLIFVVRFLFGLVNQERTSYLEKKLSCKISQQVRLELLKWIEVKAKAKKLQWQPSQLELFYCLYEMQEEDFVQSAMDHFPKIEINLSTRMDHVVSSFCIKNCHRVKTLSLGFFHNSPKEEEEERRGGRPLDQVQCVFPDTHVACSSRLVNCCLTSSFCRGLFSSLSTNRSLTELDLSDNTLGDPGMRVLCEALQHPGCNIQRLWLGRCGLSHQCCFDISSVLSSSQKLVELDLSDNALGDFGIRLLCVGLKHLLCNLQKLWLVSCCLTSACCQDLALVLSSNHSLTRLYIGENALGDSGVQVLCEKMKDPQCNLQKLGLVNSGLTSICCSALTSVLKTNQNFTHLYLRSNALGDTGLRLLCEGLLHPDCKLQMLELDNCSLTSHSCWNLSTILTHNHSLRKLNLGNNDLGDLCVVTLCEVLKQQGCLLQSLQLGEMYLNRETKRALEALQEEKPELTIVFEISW
Summary of the method: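 NLRP3 inflammasome activation was read out as IL-1β released into the supernatant, measured by ELISA. Murine BMDCs were primed with LPS (50 ng ml^−1, 3 hours), then incubated with compounds for 3 hours, with each condition run in three technical replicates. Nigericin at 5 μM acted as the positive control activator, and IL-1β release was also expressed as a percentage of that control.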

[2] = test system: BMDCs; assay: LDH release (lytic cell death, pyroptosis) from LPS-primed BMDCs; format: cell-based, mouse; settings: for Average (% positive control): LDH release; for cytotoxicity at 50 µM / cytotoxicity at 5 µM / cytotoxicity at 18.75 µM / cytotoxicity at 37.5 µM / cytotoxicity at 75 µM: Mus musculus, BMDC
Summary of the method: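 LDH released into medium, detected colorimetrically, served as the pyroptosis read-out in triplicate. LPS-primed (50 ng ml^−1, 3 h) murine bone marrow-derived dendritic cells received test compounds, typically 50 μM, or nigericin (5 μM), R837 or CL097 (100 μM) for 3 hours.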

[3] = IL-1β release, compound 50 μM, positive control nigericin 5 μM
[4] = compound 50 μM, LPS-primed BMDCs
[5] = single replicates, compound 50 μM, LPS-primed BMDCs
[6] = compound 50 μM, positive control nigericin 5 μM
[7] = compound 50 μM, LPS-primed BMDCs, read-out: Average LDH release (% of max.)
[8] = single replicates, compound 50 μM, LPS-primed BMDCs, read-out: LDH release (% of max.)
[9] = 18.75 μM, individual replicate values
[10] = 37.5 μM, individual replicate values
[11] = 75 μM, individual replicate values
[12] = IL-1β, 18.75 μM, positive control EN22 18.75 μM
[13] = IL-1β, 37.5 μM, positive control EN22 18.75 μM
[14] = IL-1β, 75 μM, positive control EN22 18.75 μM
[15] = section 1.4, 18.75 μM, read-out: Average LDH release (% of max.)
[16] = section 1.4, 37.5 μM, read-out: Average LDH release (% of max.)
[17] = section 1.4, 75 μM, read-out: Average LDH release (% of max.)
[18] = section 1.4, single replicates, 18.75 μM, read-out: LDH release (% of max.)
[19] = section 1.4, single replicates, 37.5 μM, read-out: LDH release (% of max.)
[20] = section 1.4, single replicates, 75 μM, read-out: LDH release (% of max.)
[21] = section 1.4, 18.75 μM, positive control EN22 18.75 μM
[22] = section 1.4, 37.5 μM, positive control EN22 18.75 μM
[23] = section 1.4, 75 μM, positive control EN22 18.75 μM

For COc1ccc(NC(=O)NCc2nc(Cc3ccccc3)no2)cc1 [L01.125, 3-[(3-benzyl-1,2,4-oxadiazol-5-yl)methyl]-1-(4-methoxyphenyl)-urea], the “Average (% positive control)” value [1, 3] was 0.988 % positive control, the “Average IL-1β” value [1, 4] was 0.071 ng/mL and the “IL-1β” value [1, 5] was 0.080 ng/mL and 0.071 ng/mL and 0.061 ng/mL. For the same molecule, the “Average (% positive control)” value [2, 6] was 9.397 % positive control, the cytotoxicity at 50 µM [2, 7] was 6.87% and the cytotoxicity at 50 µM [2, 8] was 7.72%.

With Cc1ccc(-c2noc(CN3C(=O)CN(c4ccccc4)C3=O)n2)cc1 [L01.127, 3-{[3-(4-methylphenyl)-1,2,4-oxadiazol-5-yl]-methyl}-1-phenylimid-azolidine-2,4-dione] the “Average (% positive control)” value [1, 3] was 6.538 % positive control, the “Average IL-1β” value [1, 4] was 0.469 ng/mL and the “IL-1β” value [1, 5] was 0.490 ng/mL and 0.475 ng/mL and 0.441 ng/mL. The “Average (% positive control)” value [2, 6] was 14.301 % positive control, the cytotoxicity at 50 µM [2, 7] was 10.5% and the cytotoxicity at 50 µM [2, 8] was 11%.

In the case of CN1C(=O)c2ccc(NC(=O)Nc3ccccc3)cc2C1=O [L01.128, 3-(2-methyl-1,3-dioxo-2,3-dihydro-1H-iso-indol-5-yl)-1-phenyl-urea], the “Average (% positive control)” value [1, 3] is reported as 5.819 % positive control, the “Average IL-1β” value [1, 4] is reported as 0.417 ng/mL and the “IL-1β” value [1, 5] is reported as 0.456 ng/mL and 0.394 ng/mL and 0.402 ng/mL. For the same molecule, the “Average (% positive control)” value [2, 6] was 16.086 % positive control, the cytotoxicity at 50 µM [2, 7] was 11.8% and the cytotoxicity at 50 µM [2, 8] was 12.1%.

For Cc1ccc(N2C(=O)N(Cc3nc(-c4ccc(F)cc4)no3)C(=O)C2C)cc1 (centres unmarked) [L01.130, 3-{[3-(4-fluorophenyl)-1,2,4-oxadiazol-5-yl]-methyl}-5-methyl-1-(4-methylphenyl)imidazol-idine-2,4-dione], the “Average (% positive control)” value [1, 3] was 4.350 % positive control, the “Average IL-1β” value [1, 4] was 0.312 ng/mL and the “IL-1β” value [1, 5] was 0.404 ng/mL and 0.317 ng/mL and 0.215 ng/mL. For the same molecule, the “Average (% positive control)” value [2, 6] was 11.646 % positive control, the cytotoxicity at 50 µM [2, 7] was 8.52% and the cytotoxicity at 50 µM [2, 8] was 9.39%.

For CNC(=O)NCc1cccc(NC(=O)Nc2ccccc2)c1 [L01.132, 3-(3-{[(methylcarbamo-yl)amino]methyl}phen-yl)-1-phenylurea], the “Average (% positive control)” value [1, 3] was 0.920 % positive control, the “Average IL-1β” value [1, 4] was 0.066 ng/mL and the “IL-1β” value [1, 5] was 0.062 ng/mL and 0.066 ng/mL and 0.069 ng/mL. The “Average (% positive control)” value [2, 6] was 8.791 % positive control, the cytotoxicity at 50 µM [2, 7] was 6.43% and the cytotoxicity at 50 µM [2, 8] was 6.46%.

For CCCCOC(=O)c1ccc(NC(=O)NC(CC(C)C)c2nc(-c3nnc[nH]3)no2)cc1 (centres unmarked) [L01.135, butyl 4-[{{3-methyl-1-[3-(4H-1,2,4-triazol-3-yl)-1,2,4-oxadiazol-5-yl]-butyl}carbamoyl)amino]-benzoate], the “Average (% positive control)” value [1, 3] was 0.975 % positive control, the “Average IL-1β” value [1, 4] was 0.070 ng/mL and the “IL-1β” value [1, 5] was 0.079 ng/mL and 0.073 ng/mL and 0.057 ng/mL. The “Average (% positive control)” value [2, 6] was 11.085 % positive control, the cytotoxicity at 50 µM [2, 7] was 8.11% and the cytotoxicity at 50 µM [2, 8] was 8.89%.

With COc1cccc(NC(=O)N(C)Cc2nc(-c3cccnc3)no2)c1 [L01.136, 1-(3-methoxyphenyl)-3-methyl-3-{[3-(pyridin-3-yl)-1,2,4-oxadiazol-5-yl]methyl}urea] the “Average (% positive control)” value [1, 3] was 1.025 % positive control, the “Average IL-1β” value [1, 4] was 0.073 ng/mL and the “IL-1β” value [1, 5] was 0.064 ng/mL and 0.073 ng/mL and 0.083 ng/mL. For the same molecule, the “Average (% positive control)” value [2, 6] was 9.465 % positive control, the cytotoxicity at 50 µM [2, 7] was 6.92% and the cytotoxicity at 50 µM [2, 8] was 6.95%.

In the case of CO[C@@H]1C[C@@H](C[C@H]2CC[C@H](C)[C@H]([C@@H](C)C(=O)O)O2)O[C@]2(O[C@](C)([C@H]3CC[C@@](C)([C@@H]4O[C@@H]([C@H]5O[C@@](O)(CO)[C@H](C)C[C@@H]5C)C[C@@H]4C)O3)C[C@H]2C)[C@@H]1C [Nigericin, Nigericin sodium salt, reference compound], the “Average IL-1β” value ([1]; 5 μM, LPS-primed BMDCs) is reported as 7.168 ng/mL, the “Average (% positive control)” value ([1]; IL-1β release, 5 μM, positive control nigericin 5 μM) is reported as 100.000 % positive control and the “Average IL-1β” value ([1]; section 1.3, 5 μM) is reported as 3.151 ng/mL. The “Average (% positive control)” value ([1]; section 1.3, IL-1β release, 5 μM, positive control nigericin 5 μM) was 100.000 % positive control, the “IL-1β” value ([1]; section 1.3, single replicates, 5 μM, sodium salt) was 3.007 ng/mL and 3.127 ng/mL and 3.318 ng/mL and the “IL-1β” value ([1]; single replicates, 5 μM, LPS-primed BMDCs, sodium salt) was 6.834 ng/mL and 6.400 ng/mL and 7.872 ng/mL and 6.518 ng/mL and 7.890 ng/mL and 7.496 ng/mL. For the same molecule, the “Average (% positive control)” value ([2]; 5 μM, positive control nigericin 5 μM) was 100.000 % positive control, the cytotoxicity at 5 µM ([2]; 5 μM, LPS-primed BMDCs, read-out: Average LDH release (% of max.)) was 73.2% and the cytotoxicity at 5 µM ([2]; section 1.3, 5 μM, read-out: Average LDH release (% of max.)) was 53.7%. For the same molecule, the cytotoxicity at 5 µM ([2]; single replicates, 5 μM, LPS-primed BMDCs, read-out: LDH release (% of max.)) was 61.9% and the “Average (% positive control)” value ([2]; section 1.3, 5 μM, positive control nigericin 5 μM) was 100.000 % positive control.

With COc1ccc(NC(=O)Nc2ccc(-c3noc(CC4CCCN(Cc5cccc(F)c5C)C4)n3)cc2)cc1 (centres unmarked) [PM07, 1-[4-(5-((1-(3-fluoro-2-methylbenzyl)piperidin-3-yl)methyl)-1,2,4-oxadiazol-3-yl)phenyl]-3-[(4-methoxy)phenyl] urea] the “Average IL-1β” value ([1]; 18.75 μM) was 1.335 ng/mL, the “IL-1β” value [1, 9] was 1.117 ng/mL and 1.248 ng/mL and 1.641 ng/mL and the “Average IL-1β” value ([1]; 37.5 μM) was 1.594 ng/mL. The “IL-1β” value [1, 10] was 1.916 ng/mL and 1.571 ng/mL and 1.295 ng/mL, the “Average IL-1β” value ([1]; 75 μM) was 1.217 ng/mL and the “IL-1β” value [1, 11] was 1.202 ng/mL and 1.130 ng/mL and 1.320 ng/mL. The “Average (% positive control)” value [1, 12] was 21.124 % positive control, the “Average (% positive control)” value [1, 13] was 25.211 % positive control and the “Average (% positive control)” value [1, 14] was 19.256 % positive control. It also gave a cytotoxicity at 18.75 µM [2, 15] of 51%, a cytotoxicity at 37.5 µM [2, 16] of 69.3% and a cytotoxicity at 75 µM [2, 17] of 85.6%. It also gave a cytotoxicity at 18.75 µM [2, 18] of 50.4%, a cytotoxicity at 37.5 µM [2, 19] of 67.7% and a cytotoxicity at 75 µM [2, 20] of 85.1%. For the same molecule, the “Average (% positive control)” value [2, 21] was 71.489 % positive control, the “Average (% positive control)” value [2, 22] was 97.102 % positive control and the “Average (% positive control)” value [2, 23] was 120.051 % positive control.

For Cc1c(F)cccc1CN1CCCC(Cc2nc(-c3ccc(NC(=O)Nc4ccccc4)cc3)no2)C1 (centres unmarked) [PM16, 1-(4-(5-((1-(3-fluoro-2-methylbenzyl)piperidin-3-yl)methyl)-1,2,4-oxadiazol-3-yl)phenyl)-3-phenylurea], the “Average IL-1β” value ([1]; 18.75 μM) was 0.777 ng/mL, the “IL-1β” value [1, 9] was 0.764 ng/mL and 0.830 ng/mL and 0.736 ng/mL and the “Average IL-1β” value ([1]; 37.5 μM) was 0.846 ng/mL. For the same molecule, the “IL-1β” value [1, 10] was 0.895 ng/mL and 0.795 ng/mL and 0.848 ng/mL, the “Average IL-1β” value ([1]; 75 μM) was 0.890 ng/mL and the “IL-1β” value [1, 11] was 0.876 ng/mL and 0.848 ng/mL and 0.948 ng/mL. For the same molecule, the “Average (% positive control)” value [1, 12] was 12.288 % positive control, the “Average (% positive control)” value [1, 13] was 13.380 % positive control and the “Average (% positive control)” value [1, 14] was 14.083 % positive control. It also gave a cytotoxicity at 18.75 µM [2, 15] of 72.8%, a cytotoxicity at 37.5 µM [2, 16] of 90% and a cytotoxicity at 75 µM [2, 17] of 97.5%. It also gave a cytotoxicity at 18.75 µM [2, 18] of 72%, a cytotoxicity at 37.5 µM [2, 19] of 89% and a cytotoxicity at 75 µM [2, 20] of 100%. The “Average (% positive control)” value [2, 21] was 102.052 % positive control, the “Average (% positive control)” value [2, 22] was 126.179 % positive control and the “Average (% positive control)” value [2, 23] was 136.598 % positive control.
